Source: patent publication US9771366B2, “Substituted tetrahydropyrido[3′,2′:4,5]pyrrolo[1,2-a]pyrazine-2-carboxamides as RSK inhibitors” (Phoenix Molecular Designs, priority 2016, dated 2017)
Structures can show the parent of a compound that is named as a salt. Where two headings read alike, the source gives them in different places. Blank lines part the entries; values can stand above or below the molecule they belong to.

Columns and labels:
[1] = target: RSK2 (Homo sapiens (Human), UniProt P51812); experiment: Radioisotope kinase assay (SignalChem), RSK2; format: biochemical
RSK2, sequence (P51812 whole entry): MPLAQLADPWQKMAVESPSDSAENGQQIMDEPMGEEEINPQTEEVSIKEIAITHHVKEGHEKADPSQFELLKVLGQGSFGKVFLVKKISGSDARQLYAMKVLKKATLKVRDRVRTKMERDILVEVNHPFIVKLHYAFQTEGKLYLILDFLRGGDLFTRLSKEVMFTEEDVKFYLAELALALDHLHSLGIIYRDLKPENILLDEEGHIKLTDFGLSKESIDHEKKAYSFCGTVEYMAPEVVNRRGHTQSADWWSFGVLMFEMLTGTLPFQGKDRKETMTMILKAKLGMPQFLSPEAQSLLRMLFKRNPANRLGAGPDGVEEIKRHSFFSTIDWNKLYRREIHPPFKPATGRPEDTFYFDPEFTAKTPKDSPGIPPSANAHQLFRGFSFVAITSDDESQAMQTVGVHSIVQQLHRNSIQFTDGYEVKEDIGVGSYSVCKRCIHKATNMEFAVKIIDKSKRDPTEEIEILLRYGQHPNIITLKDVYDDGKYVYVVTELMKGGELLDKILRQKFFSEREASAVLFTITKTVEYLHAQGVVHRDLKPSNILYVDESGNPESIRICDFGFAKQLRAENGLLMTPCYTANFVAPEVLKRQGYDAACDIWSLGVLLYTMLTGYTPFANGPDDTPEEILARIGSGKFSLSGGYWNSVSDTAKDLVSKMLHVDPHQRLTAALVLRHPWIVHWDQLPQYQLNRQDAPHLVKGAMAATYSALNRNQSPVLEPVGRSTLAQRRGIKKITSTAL
Protocol: The assay conditions for the RSK2 kinase target were optimized to yield acceptable enzymatic activity. In addition, the assays were optimized to give high signal-to-noise ratio.
Radioisotope assays (SignalChem) were performed for the evaluation of the kinase target profiling and all assays were performed in a designated radioactive working area. The kinase targets were RSK1, RSK2, RSK3, RSK4 and MK2.
The assay was initiated by the addition of ^33P-ATP and the reaction mixture incubated at 30° C. for 15 minutes. After the incubation period, the assay was terminated by spotting 10 μL of the reaction mixture onto Multiscreen phosphocellulose P81 plate. The Multiscreen phosphocellulose P81 plate was washed 3 times for approximately 15 minutes each in a 1% phosphoric acid solution. The radioactivity on the P81 plate was counted in the presence of scintillation fluid in a Trilux scintillation counter.
(§1) Blank controls were set up for each target kinase which included all the assay components except the addition of the appropriate substrate (which was replaced with equal volume of assay dilution buffer). The corrected activity for each target kinase was determined by removing the blank control value.

[2] = Colony forming unit hematopoietic stem cell assay; format: cell-based, human; conditions: human, CD34+ cells from human cord blood or peripheral blood; at 3.8 uM; read-out: cells viable in the HSC assay
Protocol: (§2) The hematopoietic colony forming cell assay was conducted based on a protocol outlined by StemCell Technologies. […] Following the addition of CD34^+ cells isolated from human cord blood or peripheral blood (StemCell Technologies) at a final concentration of 5×10^2 cells per dish, the tubes were vortexed and allowed to stand for 5 minutes at room temperature. Next, the MethoCult mixtures were dispensed into 35 mm dishes (Corning Incorporated) through blunt end needles (StemCell Technologies) and 5 ml syringes (BD Biosciences) at a volume of 1.1 ml per dish. The medium was evenly distributed across the surface of each dish by gentle tilting and rotation. The dishes were then placed in a 100 mm culture dish (Grenier Bio-One) containing additional 35 mm dishes with sterile water to maintain humidity. The culture dish was then placed at 37° C. in a humidified incubator containing 5% CO2 for 13 days. The number of myeloid and erythroid derived colonies in both the treated and control dishes were counted and compared.

[3] = target: RSK4 (Homo sapiens (Human), UniProt Q9UK32); experiment: Radioisotope kinase assay (SignalChem), RSK4; format: biochemical
RSK4, sequence (Q9UK32 whole entry): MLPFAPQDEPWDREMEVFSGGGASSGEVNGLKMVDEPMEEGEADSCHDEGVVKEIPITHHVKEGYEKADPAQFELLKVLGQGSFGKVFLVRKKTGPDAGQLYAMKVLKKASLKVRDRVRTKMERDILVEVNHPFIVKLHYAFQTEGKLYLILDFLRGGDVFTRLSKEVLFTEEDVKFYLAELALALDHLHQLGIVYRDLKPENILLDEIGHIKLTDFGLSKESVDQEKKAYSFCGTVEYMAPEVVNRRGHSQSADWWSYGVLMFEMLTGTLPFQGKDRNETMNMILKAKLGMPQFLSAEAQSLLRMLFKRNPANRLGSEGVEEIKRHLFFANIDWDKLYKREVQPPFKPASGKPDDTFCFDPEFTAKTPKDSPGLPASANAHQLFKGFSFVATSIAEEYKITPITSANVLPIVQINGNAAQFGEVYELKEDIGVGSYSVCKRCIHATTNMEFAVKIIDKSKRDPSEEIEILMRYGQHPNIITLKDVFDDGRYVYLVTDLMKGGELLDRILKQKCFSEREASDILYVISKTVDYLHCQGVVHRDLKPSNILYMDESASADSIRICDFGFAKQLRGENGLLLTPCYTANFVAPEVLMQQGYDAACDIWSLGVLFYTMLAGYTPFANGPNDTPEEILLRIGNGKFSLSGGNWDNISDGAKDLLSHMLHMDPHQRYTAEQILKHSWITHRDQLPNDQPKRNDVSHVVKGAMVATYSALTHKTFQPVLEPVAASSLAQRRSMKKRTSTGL
Protocol: (§3) Radioisotope assays (SignalChem) were performed for the evaluation of the kinase target profiling and all assays were performed in a designated radioactive working area. The kinase targets were RSK1, RSK2, RSK3, RSK4 and MK2. The kinase assays (in duplicate) were performed at 30° C. for 15 minutes in a final volume of 25 μL according to the following assay reaction recipe: • Component 1: 5 μL of diluted active kinase target (100 ng per reaction) • Component 2: 5 μL of peptide substrate (0.5 μg per reaction) (for RSK1, RSK2, RSK3 and RSK4, RSK S6K substrate was used; for MK2, HSP27tide was used) • Component 3: 5 μL of kinase assay buffer • Component 4: 5 μL of compound described herein (various concentrations: 0, 0.1, 1, 10, 100 or 1000 nM or 1, 3, 10, 30, 100, 300 nM) • Component 5: 5 μL of ^33P-ATP (5 μM stock solution, 0.8 μCi; […])
(§4) The assay was initiated by the addition of ^33P-ATP and the reaction mixture incubated at 30° C. for 15 minutes. […] The radioactivity on the P81 plate was counted in the presence of scintillation fluid in a Trilux scintillation counter.
as §1

[4] = target: RSK1 (Homo sapiens (Human), UniProt Q15418); experiment: Radioisotope kinase assay (SignalChem), RSK1; format: biochemical
RSK1, sequence (Q15418 whole entry): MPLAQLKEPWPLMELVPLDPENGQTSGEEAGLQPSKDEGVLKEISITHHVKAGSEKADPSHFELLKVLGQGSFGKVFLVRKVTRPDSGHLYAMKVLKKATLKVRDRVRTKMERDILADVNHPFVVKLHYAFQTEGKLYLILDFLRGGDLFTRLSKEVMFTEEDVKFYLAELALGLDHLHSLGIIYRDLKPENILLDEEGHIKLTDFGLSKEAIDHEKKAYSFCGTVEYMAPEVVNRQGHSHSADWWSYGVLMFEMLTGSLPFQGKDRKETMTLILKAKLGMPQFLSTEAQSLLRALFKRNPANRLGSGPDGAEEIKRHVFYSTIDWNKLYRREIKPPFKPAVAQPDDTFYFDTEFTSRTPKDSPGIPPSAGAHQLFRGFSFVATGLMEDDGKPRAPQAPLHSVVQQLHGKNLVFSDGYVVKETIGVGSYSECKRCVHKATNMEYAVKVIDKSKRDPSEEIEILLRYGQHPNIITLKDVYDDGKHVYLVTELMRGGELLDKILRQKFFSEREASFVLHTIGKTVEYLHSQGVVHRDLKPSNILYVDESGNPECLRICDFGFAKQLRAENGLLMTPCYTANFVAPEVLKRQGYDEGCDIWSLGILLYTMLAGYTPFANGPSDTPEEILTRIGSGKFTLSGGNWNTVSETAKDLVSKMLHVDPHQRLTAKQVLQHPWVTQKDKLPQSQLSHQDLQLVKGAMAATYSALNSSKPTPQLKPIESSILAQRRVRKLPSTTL
Protocol: as §3, §4, §1

[5] = target: RSK3 (Homo sapiens (Human), UniProt Q15349); experiment: Radioisotope kinase assay (SignalChem), RSK3; format: biochemical
RSK3, sequence (Q15349 whole entry): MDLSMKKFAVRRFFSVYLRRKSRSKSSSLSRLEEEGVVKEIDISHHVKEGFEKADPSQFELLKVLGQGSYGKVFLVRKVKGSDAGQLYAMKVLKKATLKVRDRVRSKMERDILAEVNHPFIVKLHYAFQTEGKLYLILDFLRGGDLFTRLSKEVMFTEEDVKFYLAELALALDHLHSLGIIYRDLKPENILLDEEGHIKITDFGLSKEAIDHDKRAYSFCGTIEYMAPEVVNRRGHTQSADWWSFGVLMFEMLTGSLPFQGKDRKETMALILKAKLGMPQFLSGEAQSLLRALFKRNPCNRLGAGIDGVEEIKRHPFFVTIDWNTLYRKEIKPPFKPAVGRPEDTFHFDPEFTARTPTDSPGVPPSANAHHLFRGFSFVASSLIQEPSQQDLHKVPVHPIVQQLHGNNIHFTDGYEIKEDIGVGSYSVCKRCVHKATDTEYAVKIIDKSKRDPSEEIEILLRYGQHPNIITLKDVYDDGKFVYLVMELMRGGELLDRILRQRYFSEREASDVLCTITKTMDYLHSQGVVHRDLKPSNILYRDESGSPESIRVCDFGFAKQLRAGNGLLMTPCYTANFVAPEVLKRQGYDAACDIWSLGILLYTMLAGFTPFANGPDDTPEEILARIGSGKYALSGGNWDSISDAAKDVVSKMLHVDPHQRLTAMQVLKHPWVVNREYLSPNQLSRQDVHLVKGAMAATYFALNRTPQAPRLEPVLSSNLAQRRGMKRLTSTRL
Protocol: as §3, §4, §1

[6] = tested on: CIITA mRNA; experiment: Immuno-oncology: CIITA mRNA expression; format: cell-based, Human; conditions: MDA-MB-231 and JIMT-1 cells; Compound 16 2 or 4 uM, Compound 18 1, 2, or 4 uM
From the text: (§5) A key feature of cancer is low immunogenicity. This can occur by several mechanisms that allow the cells to escape immune recognition. […] HLA-DRA is a member of MHC-II genes and CIITA is the master regulator of MHC II transcription. Thus it was surprising that CIITA, which would be expected to regulate MHC II gene expression, was not altered by RSK inhibition. […] HLA-DRA is important for immune recognition while PD-L1 is involved in immune checkpoints.

[7] = tested on: CD34+ cells; experiment: Colony forming unit hematopoietic stem cell assay; format: cell-based, human; conditions: ratio of IC50 values against CD34+ cells and MDA-MB-231 cells
Protocol: as §2

[8] = tested on: CD274, the gene that encodes PD-L1; experiment: Immuno-oncology: CD274 expression in MDA-MB-231 cells; format: cell-based, Human; conditions: Compound 16 2 or 4 uM, Compound 18 1, 2 or 4 uM
From the text: as §5

[9] = tested on: phosphorylated Y-box binding protein-1 (YB-1) at serine 102 (P—YB-1S102); experiment: Immunoblotting of phosphorylated YB-1 in MDA-MB-231 cells
Protocol: Following desired experimental conditions, breast cancer cell lines grown and treated in 6 well plates or 100 mm culture dishes (Grenier Bio-One) were placed on ice and the supernatant from each well was removed and the cells were washed in cold PBS. Following removal of PBS, cells were exposed to radioimmunoprecipitation assay (RIPA) buffer (50 mM Tris-HCl (pH 8), 150 mM NaCl, 1% NP-40, 0.5% sodium deoxycholate, 0.1% SDS; Fisher Scientific) supplemented with 1% phosphatase inhibitor (Fisher Scientific) and 1% protease inhibitor (Fisher Scientific) for 10 minutes. Samples were transferred to eppendorf tubes, vortexed and then centrifuged at 14 000 rpm for 10 minutes. Supernatants were collected as whole cell lysates. For mouse tumour tissues, each sample was place in a 35 mm culture dish with complete RIPA lysis buffer. The samples were diced in the buffer on ice with a sterile scalpel (VWR) and the buffer and tissue were transferred to an eppendorf tube. The samples were left on ice for 10 minutes with periodic vortexing every 2 to 3 minutes. The samples were then transferred to a Qiashredder (Qiagen) and centrifuged at 14 000 rpm for 2 minutes. The flow through was transferred to a new eppendorf tube and the samples were centrifuged again at 14 000 rpm for 5 minutes. Supernatants were collected as whole cell lysates.
For the majority of experiments in this study, 30 μg of protein per well was loaded. Samples were then resolved on SDS-PAGE (polyacrylamide gel electrophoresis) using various percentages of acrylamide gels (8%-12%), depending on the proteins of interest. […] For certain immunoblots, bands of proteins of interest were scanned and band intensity ratios were determined by densitometric analysis (ImageJ). […] To assess whether cells are actively undergoing cell death, the activity of poly ADP ribose polymerase (PARP) (1:1000 CST) was also measured using the immunoblotting method.

[10] = tested on: HLA-DRA mRNA; experiment: Immuno-oncology: HLA-DRA mRNA expression; format: cell-based, Human; conditions: MDA-MB-231 and JIMT-1 cells; Compound 16 2 or 4 uM, Compound 18 1, 2, or 4 uM
From the text: as §5

[11] = tested on: CD274, the gene that encodes PD-L1; experiment: Immuno-oncology: CD274 expression in JIMT-1 cells; format: cell-based, Human; conditions: 1-20 uM
From the text: as §5

[12] = Solubility assessment at 20 mg/ml; format: physicochemical; conditions: for pH: 20 mg/ml solution, DMSO diluted in DMEM; for 20 mg/ml Solubility: dissolved in DMSO, diluted in DMEM
Protocol: Solubility is an important property for therapeutic drug candidates. Poor solubility can lead to low bioavailability resulting in suboptimal drug delivery. It can also prevent the evaluation of test agents in animals because the concentration(s) needed to achieve the desired effect cannot be achieved to poor solubility. For solubility assessments, small molecules targeting RSK were compared. For these assessments, 100 mM solutions of the compounds dissolved in DMSO were diluted in DMEM growth media (Life Technologies) supplemented with fetal bovine serum (FBS, Life Technologies) and 100 units/ml penicillin and 100 units/ml streptomycin (Life Technologies) to make 20 mg/ml solutions. Once diluted, the solutions were vortexed and examined for the formation of precipitates. […] For Compound 26, a 100 mM solution of the compound dissolved in DMSO was diluted in phosphate buffered saline (Life Technologies) to make a 20 mg/ml solution. The stock of […] was chosen because this is the upper end of what would be required to dose mice for a range of studies including MTD, PK, PD and efficacy. The pH of this solution was determined to be 2, as previously described. […] At high concentrations some RSK inhibitors were highly soluble while others were not. Compound 0 is (R)—N-(1-benzyl-1H-pyrazol-4-yl)-9-methyl-6-oxo-6,7,8,9-tetrahydropyrido[3′,2′:4,5]pyrrolo[1,2-a]pyrazine-2-carboxamide. Compound 0 was not soluble, whereas Compounds 18, 20, 21, 25 and 26 were soluble under the same conditions (Table 5).

[13] = tested on: All cell lines of Tables 7A and 7B; experiment: Monolayer growth inhibition, crystal violet, range over all cell lines; format: cell-based; conditions: 120 h, read-out: IC50 Values - Crystal Violet (5 Days), Range
[14] = tested on: All cell lines of Tables 6A and 6B; experiment: Monolayer growth inhibition, Alamar blue, range over all cell lines; format: cell-based; conditions: 120 h, read-out: IC50 Values - Alamar Blue (5 Days), Range
Protocol: 1×10^3 cells per well were seeded for a final volume of 200 μl per well and plates were incubated for 5 days at 37° C. in a humidified incubator with 5% CO2. Following the incubation period, cell survival was quantified by Alamar blue assay (Life Technologies). Briefly, media from each well was replaced with 100 μl of phosphate buffer saline (PBS, Life Technologies) and cells were incubated with 5% Alamar blue, which incorporates a propriety redox indicator that changes colour in response to metabolic activity, for up to 2 hours. During this period of incubation, the absorbance at 570 nm and 600 nm was measured at various time points, depending on the cell line or sample. Percent survival was calculated by comparing the absorbance ratio of the test well to the control well multiplied by 100%, as indicated in the following formula:

[15] = Plasma and tumor levels by LC/MS in MDA-MB-231 xenograft mice; format: in vivo; conditions: nu/nu, mouse, oral, 100 mg/kg; for concentration at 30 min: 30 minutes after last dose

Compound: C[C@@H]1CNC(=O)c2cc3ccc(NC(=O)c4cnn(Cc5ccccc5)c4)nc3n21 [Compound 15, (R)-1-benzyl-N-(9-methyl-6-oxo-6,7,8,9-tetrahydropyrido[3′,2′:4,5]pyrrolo[1,2-a]pyrazin-2-yl)-1H-pyrazole-4-carboxamide]
- IC50 [1]: 94 nM
- viability at 13 days, […] [2]: 100%
- IC50 [3]: 8 nM
- IC50 [4]: 23.6 nM
- IC50 [5]: 6 nM

- IC50 [1]: 23 nM
Compound: C[C@@H]1CNC(=O)c2cc3ccc(C(=O)Nc4cnn(Cc5cccc(N)c5)c4)nc3n21 [Compound 16, (R)—N-(1-(3-aminobenzyl)-1H-pyrazol-4-yl)-9-methyl-6-oxo-6,7,8,9-tetrahydropyrido[3′,2′:4,5]pyrrolo[1,2-a]pyrazine-2-carboxamide]
- mRNA expression of CIITA [6]: little effect
- Therapeutic Window [7]: >100X
- levels of CD274 [8]: reduced
- loss of P—YB-1 ([9]; MDA-MB-231, 0.01-1 uM, 96 hrs): dose dependent loss
- levels of HLA-DRA mRNA [10]: elevated

Compound: C[C@@H]1CNC(=O)c2cc3ccc(C(=O)Nc4cnn(Cc5ccc(N)cc5)c4)nc3n21 [Compound 18, (R)—N-(1-(4-aminobenzyl)-1H-pyrazol-4-yl)-9-methyl-6-oxo-6,7,8,9-tetrahydropyrido[3′,2′:4,5]pyrrolo[1,2-a]pyrazine-2-carboxamide]
- IC50 [1]: 12 nM
- mRNA expression of CIITA [6]: little effect
- CD274 [11]: inhibited
- IC50 [3]: 0.3 nM
- IC50 [4]: 2 nM
- pH [12]: 9
- 20 mg/ml Solubility [12]: Soluble
- levels of CD274 [8]: reduced
- loss of P—YB-1 ([9]; MDA-MB-231, 0.01, 0.1, 1, or 10 uM, 24 hrs): dose dependent loss
- loss of P—YB-1 ([9]; MDA-MB-231, 0.01-1 uM, 96 hrs): dose dependent loss
- levels of HLA-DRA mRNA [10]: elevated
- IC50 [5]: 1.7 nM

Compound: C[C@@H]1CNC(=O)c2cc3ccc(C(=O)Nc4cnn(Cc5ccc(F)cc5F)c4)nc3n21 [Compound 23, (R)—N-(1-(2,4-difluorobenzyl)-1H-pyrazol-4-yl)-9-methyl-6-oxo-6,7,8,9-tetrahydropyrido[3′,2′:4,5]pyrrolo[1,2-a]pyrazine-2-carboxamide]
- IC50 [13]: 1100 to 15000 nM
- IC50 [14]: 1100 to 19800 nM
- 20 mg/ml Solubility [12]: Precipitate

Compound: C[C@@H]1CNC(=O)c2cc3ccc(C(=O)Nc4cnn(Cc5ccc(N)cc5)c4)nc3n21 [Compound 25, (R)—N-(1-(4-aminobenzyl)-1H-pyrazol-4-yl)-9-methyl-6-oxo-6,7,8,9-tetrahydropyrido[3′,2′:4,5]pyrrolo[1,2-a]pyrazine-2-carboxamide hydrochloride salt]
- IC50 [1]: 18 nM
- concentration at 30 min ([15]; plasma, 100 mg/kg BID PO three days, read-out: plasma level, average): 35.1 µM
- concentration at 30 min ([15]; tumor, 100 mg/kg BID PO 21 days, read-out: average concentration in the tumors): 7.7 µM
- concentration at 30 min ([15]; tumor, 100 mg/kg BID PO three days, read-out: Tumor level, average): 7.1 µM
- Kp at 30 min ([15]; tumor/plasma, three days of treatment, read-out: tumor uptake (ratio between tumor and plasma)): 0.2
- Therapeutic Window ([7]; hydrochloride salt): >100X
- pH ([12]; hydrochloride salt): 2
- 20 mg/ml Solubility ([12]; hydrochloride salt): Soluble
